Values after ≈ are worked out from the molar mass of the structure shown.
Legend:
[1] = test system: histamine-induced asthma; experiment: Antiasthmatic effect on histamine-induced asthma in guinea pigs (latency period); assay type: in vivo; conditions: X±s, n = 5; for Post-administration latency period: 1 mg/kg oral gavage, sixty minutes after administration, histamine hydrochloride spray, no asthma within 8 minutes counted as 8 minutes
Method: The guinea pigs were placed in a polymethyl methacrylate bell jar and a histamine hydrochloride solution was sprayed ultrasonically (0.8 mg/mL) for 40 seconds. The time point at which the guinea pigs developed asthma was recorded. The time of convulsion and fall was taken as the latency period. Guinea pigs with a latency period exceeding 180 seconds were not selected. […] The guinea pigs were administered by oral gavage at a dose of 2 mL/kg·bw. Sixty minutes after the administration, the guinea pigs were placed in bell jars, and histamine hydrochloride solution was sprayed under the same conditions as in the previous selection. The latency period for the onset of asthma was recorded. […] The results were processed statistically.

[2] = test system: isolated ileal smooth muscle; experiment: Muscle tone of isolated ileal smooth muscle of guinea pigs, compound alone; conditions: Table 3, no histamine, X±s, n = 8; for Smooth muscle tone (g) After administration: 5 minutes after adding the drug; for Antispasmodic percentage (%): relative to tone before adding compound, 5 min
Method: (§1) The guinea pig was knocked unconscious with a wooden stick, and the abdomen was immediately dissected to separate the ileum about 15 cm in length. The contents of the intestinal segment were flushed with Tyrode's solution and placed in Tyrode's solution at a constant temperature of 37°C for later use, and oxygen was supplied simultaneously. The experimental intestinal tract (1 cm in length) was cut and placed into 20 ml of Tyrode's solution at a constant temperature of 37°C with a continuous oxygen supply. One end of the intestine was fixed on the ventilation hook and the other end was connected to the muscle tone transducer and led to the computer interface. The muscle tone value of the ileal smooth muscle was recorded with a BL system. The experiment was carried out after the intestinal segment contraction became stable.
After the ileum contraction curve stabilized, the tone values before adding the drug were recorded, then the drug or DMSO was added, and the average tone value of the ileum contraction curve at that point was recorded 5 minutes later. The operation was repeated 8 times. The antispasmodic percentage was calculated according to the following formula. Antispasmodic percentage =; (Tone value before adding subject compound−Tone value after adding subject compound)/(Tone value before adding subject compound) × 100% [formula]

[3] = Muscle tone of isolated ileal smooth muscle of guinea pigs contracted with histamine; conditions: Table 4; 3 minutes after adding 0.05 mL compound at maximum histamine contraction; x±s, n = 8
Method: as §1
(§2) After the ileal peristalsis curve stabilized, the tone values before adding the compound were recorded, and then 0.05 mL of histamine was added. […] The operation was repeated 8 times. The antispasmodic percentage was calculated using the following equation. Antispasmodic percentage; = (Tone value after adding histamine−Tone value after adding subject compound)/(Tone value after adding histamine) × 100% [formula]

[4] = test system: histamine; experiment: as above; conditions: Table 4, x±s, n = 8; for Smooth muscle tone (g) After addition of histamine: after 0.05 mL of histamine, before compound; for Smooth muscle tone (g) Before administration: before histamine and compound; for Antispasmodic percentage (%): relative to tone after adding histamine, 3 min
Method: as §1, §2

[5] = Solubility in water, methanol and isopropanol; conditions: for solubility Isopropanol: in isopropanol; for solubility Water: in water; for solubility Methanol: in methanol
Method: The solubility in water, methanol, and isopropanol of the compounds of the present disclosure and the comparative compounds were measured separately.

[6] = Accelerated stability test; assay type: physicochemical; conditions: 40°C ± 2°C, relative humidity 75% ± 5%; for remaining at 730 h / remaining at 1460 h / remaining at 2190 h / remaining at 4380 h: storage 75% relative humidity, read-out: Content

solubility Isopropanol [5] [mg/mL]	solubility Water [5]	Content ([6]; Month 0) [%]	Description ([6]; Month 0)	Related substances ([6]; Month 0) [%]	Description ([6]; Month 1)	Related substances ([6]; Month 1) [%]	Description ([6]; Month 2)	Related substances ([6]; Month 2) [%]	Description ([6]; Month 3)	Related substances ([6]; Month 3) [%]	Description ([6]; Month 6)	Related substances ([6]; Month 6) [%]	solubility Methanol [5] [mg/mL]	Compound	Post-administration latency period [1] [s]	Smooth muscle tone (g) After administration [2] [g]	Antispasmodic percentage (%) [2] [%]	Smooth muscle tone (g) After administration [3] [g]	Antispasmodic percentage (%) [4] [%]	further results
25 (≈ 52.4 mM)	32 mg/mL (≈ 67.1 mM)	–	–	–	–	–	–	–	–	–	–	–	–	O=P(O)(O)OCCCCCN1CCC(=C2c3ccc(Cl)cc3CCc3cccnc32)CC1 [Compound III-13]	366.81 ± 53.10	1.21 ± 0.26	32.02±16.85	1.17 ± 0.20	65.58±18.20	Pre-administration latency period ([1]; baseline before dosing, histamine hydrochloride spray 0.8 mg/mL for 40 seconds): 104.38 ± 50.27 s; Smooth muscle tone (g) Before administration ([2]; before adding the drug): 1.78 ± 0.25 g; Smooth muscle tone (g) After addition of histamine [4]: 3.40 ± 0.98 g; Smooth muscle tone (g) Before administration [4]: 1.80 ± 0.16 g
–	–	99.6	White powder	0.03	White powder	0.04	White powder	0.05	White powder	0.06	White powder	0.10	–	O=P(O)(O)OCCCCN1CCC(=C2c3ccc(Cl)cc3CCc3cccnc32)CC1 [Compound IV-4]	380.22 ± 51.19	1.14 ± 0.21	33.33±20.91	1.16 ± 0.22	66.76±19.71	solubility ([5]; water): 402 mg/mL (≈ 868 mM); remaining at 730 h ([6]; Month 1): 99.6%; remaining at 1460 h ([6]; Month 2): 99.6%; remaining at 2190 h ([6]; Month 3): 99.6%; remaining at 4380 h ([6]; Month 6): 99.5%
1 (≈ 2.16 mM)	386 mg/mL (≈ 834 mM)	99.5	White powder	0.03	White powder	0.06	White powder	0.10	White powder	0.13	White powder	0.28	22 (≈ 47.5 mM)	O=P(O)(O)OCCCCN1CCC(=C2c3ccc(Cl)cc3CCc3cccnc32)CC1 [Compound IV-5]	362.49 ± 50.00	1.19 ± 0.27	31.60±20.10	1.19 ± 0.23	65.70±20.11	Content ([6]; Month 1, 43800 min): 99.5%; Content ([6]; Month 2, 87600 min): 99.4%; Content ([6]; Month 3, 131400 min): 99.4%; Content ([6]; Month 6, 262800 min): 99.2%
5 (≈ 10.5 mM)	367 mg/mL (≈ 769 mM)	–	–	–	–	–	–	–	–	–	–	–	30 (≈ 62.9 mM)	O=P(O)(O)OCCCCCN1CCC(=C2c3ccc(Cl)cc3CCc3cccnc32)CC1 [Compound IV-6]	361.94 ± 53.19	1.14 ± 0.25	34.10±18.93	1.18 ± 0.21	65.80±19.03	–
4 (≈ 8.39 mM)	287 mg/mL (≈ 602 mM)	99.6	White powder	0.03	White powder	0.06	White powder	0.09	White powder	0.13	White powder	0.28	27 (≈ 56.6 mM)	O=P(O)(O)OCCCCCN1CCC(=C2c3ccc(Cl)cc3CCc3cccnc32)CC1 [Compound IV-7]	367.32 ± 53.01	1.16 ± 0.27	31.76±18.66	1.15 ± 0.23	66.76±19.32	remaining at 730 h ([6]; Month 1): 99.6%; remaining at 1460 h ([6]; Month 2): 99.5%; remaining at 2190 h ([6]; Month 3): 99.5%; remaining at 4380 h ([6]; Month 6): 99.3%
–	Practically insoluble	–	–	–	–	–	–	–	–	–	–	–	–	OCCCCN1CCC(=C2c3ccc(Cl)cc3CCc3cccnc32)CC1 [Hydroxybutyl desloratadine, hydroxybutyl desloratadine, reference compound]	279.71 ± 54.91	1.30 ± 0.23	23.53±12.32	1.44 ± 0.44	–	Smooth muscle tone (g) After addition of histamine [4]: 3.41 ± 0.92 g; Smooth muscle tone (g) Before administration [4]: 1.73 ± 0.12 g
–	Practically insoluble	–	–	–	–	–	–	–	–	–	–	–	–	OCCN1CCC(=C2c3ccc(Cl)cc3CCc3cccnc32)CC1 [Hydroxyethyl desloratadine, hydroxyethyl desloratadine, reference compound]	284.11 ± 59.10	1.30 ± 0.30	23.97±10.32	1.43 ± 0.41	57.94±11.45	–

From patent EP4559923A1, “ANTIHISTAMINE COMPOUND, AND PREPARATION METHOD THEREFOR AND USE THEREOF” (HC Synthetic Pharmaceutical Co., Ltd., priority 2022, dated 2024)
